In DBAASP:
Values after ≈ are worked out from the molar mass of the structure shown.

Tests used:
Assay in all cases: ≥ marks a high value that may be exact or a test limit, other limits are often not marked, values filed in µg/mL are converted to µM
[1] = tested on: Escherichia coli ATCC 25922
[2] = tested on: Staphylococcus aureus ATCC 2592
[3] = tested on: Candida albicans ATCC 2002
[4] = tested on: Bacillus subtilis ATCC 6633
Shigella dysenteriae = tested on: Shigella dysenteriae
[5] = tested on: Bacillus subtilis ATCC 23857
[6] = tested on: Staphylococcus aureus ATCC 6538
[7] = tested on: Pseudomonas aeruginosa ATCC 9027
[8] = tested on: Klebsiella pneumoniae ATCC 700603
[9] = tested on: Staphylococcus aureus ATCC 25923
Escherichia coli = tested on: Escherichia coli
[10] = tested on: Staphylococcus epidermidis ATCC 12228
[11] = tested on: Micrococcus luteus ATCC 9341
Pseudomonas aeruginosa = tested on: Pseudomonas aeruginosa
Bacillus cereus = tested on: Bacillus cereus
Escherichia coli JW0013 = tested on: Escherichia coli JW0013

## CC[C@H](C)[C@H](NC(=O)[C@H](CC(C)C)NC(=O)[C@@H](N)Cc1ccccc1)C(=O)N[C@H](C(=O)N[C@@H](CCCN=C(N)N)C(=O)N[C@@H](CCCN=C(N)N)C(=O)N1CCC[C@H]1C(=O)N[C@H](C(=O)N[C@H](C(=O)N[C@@H](CC(C)C)C(=O)NCC(=O)N[C@@H](CC(C)C)C(=O)N[C@@H](CC(C)C)C(N)=O)C(C)C)[C@@H](C)CC)[C@@H](C)CC [FLIIRRPIVLGLL]
[1]
  MIC: 19.7 µM (≈ 30 µg/mL)
[2]
  MIC: 6.57 µM (≈ 9.99 µg/mL)
[3]
  MIC: 8.21 µM (≈ 12.5 µg/mL)

## CC[C@H](C)[C@@H]1NC(=O)[C@@H]2CCCN2C(=O)[C@@H](NC(=O)[C@H](Cc2ccccc2)NC(=O)[C@H](CC(C)C)NC(=O)[C@@H](NC(=O)[C@@H]2CCCN2C(=O)[C@@H](NC(=O)[C@@H](NC(=O)[C@H](CCCCN)NC(=O)[C@H](Cc2ccccc2)NC(=O)[C@H](C)NC(=O)[C@@H](NC(=O)[C@H](CCCCN)NC(=O)[C@H](CC(C)C)NC(=O)[C@H](CC(C)C)NC(=O)[C@@H](NC(=O)[C@H](CO)NC(=O)[C@H](CC(C)C)NC(=O)[C@@H](N)Cc2ccccc2)[C@@H](C)O)C(C)C)C(C)C)C(C)C)[C@@H](C)O)CSSC[C@@H](C(N)=O)NC(=O)[C@H](CCCCN)NC(=O)[C@H](CCCCN)NC(=O)[C@H]([C@@H](C)O)NC1=O [FLSTLLKVAFKVVPTLFCPITKKC]
[4]
  MIC: 1.74 µM (≈ 4.69 µg/mL)
[1]
  MIC: 6.95 µM (≈ 18.7 µg/mL)
[2]
  MIC: 0.434 µM (≈ 1.17 µg/mL)
Shigella dysenteriae
  MIC: 3.48 µM (≈ 9.37 µg/mL)
[3]
  MIC: 1.74 µM (≈ 4.69 µg/mL)

## CC[C@H](C)[C@H](NC(=O)CN)C(=O)N[C@H](C(=O)N[C@@H](C)C(=O)NCC(=O)N[C@H](C(=O)N[C@H](C(=O)N[C@H](C(=O)N[C@@H](CCCCN)C(=O)N[C@H](C(=O)N[C@@H](CCCCN)C(=O)N[C@@H](C)C(N)=O)[C@@H](C)CC)[C@@H](C)CC)[C@@H](C)CC)[C@@H](C)CC)[C@@H](C)CC [GIIAGIIIKIKA]
[1]
  MIC: > 128 µM
[5]
  MIC: ≥ 128 µM

## CC[C@H](C)[C@H](NC(=O)[C@H](CCCCN)NC(=O)[C@H](CCCCN)NC(=O)[C@@H](NC(=O)[C@@H](NC(=O)[C@H](CCCCN)NC(=O)[C@H](CCCCN)NC(=O)[C@@H](NC(=O)[C@@H](NC(=O)[C@H](CCCCN)NC(=O)[C@H](CCCCN)NC(=O)[C@@H](NC(=O)[C@@H](NC(=O)CN)[C@@H](C)CC)C(C)C)[C@@H](C)CC)C(C)C)[C@@H](C)CC)C(C)C)C(N)=O [GIVKKIVKKIVKKI]
[6]
  MIC: 128 µM (≈ 204 µg/mL)
[7]
  MIC: 21 µM (≈ 33.5 µg/mL)
[1]
  MIC: 22 µM (≈ 35 µg/mL)
[5]
  MIC: 1.7 µM (≈ 2.71 µg/mL)

## CC[C@H](C)[C@H](NC(=O)[C@H](CCCCN)NC(=O)[C@H](CCCCN)NC(=O)[C@H](C)NC(=O)[C@@H](NC(=O)[C@H](C)NC(=O)[C@H](CC(C)C)NC(=O)[C@H](CC(C)C)NC(=O)[C@H](C)NC(=O)[C@H](CCCCN)NC(=O)[C@H](CC(C)C)NC(=O)[C@H](CC(N)=O)NC(=O)CN)C(C)C)C(=O)N[C@@H](CC(C)C)C(N)=O [GNLKALLAVAKKIL]
[8]
  MIC: 16 µM (≈ 23.2 µg/mL)
[9]
  MIC: 32 µM (≈ 46.4 µg/mL)
Escherichia coli
  MIC: 8 µM (≈ 11.6 µg/mL)
[5]
  MIC: 4 µM (≈ 5.8 µg/mL)

## CC[C@H](C)[C@H](N)C(=O)N[C@@H](CC(C)C)C(=O)NCC(=O)N[C@H](C(=O)N[C@H](C(=O)N[C@@H](CC(C)C)C(=O)NCC(=O)N[C@@H](CC(C)C)C(=O)N[C@@H](CC(C)C)C(=O)N[C@@H](CCCCN)C(=O)N[C@@H](C)C(=O)N[C@@H](CC(C)C)C(N)=O)[C@@H](C)CC)[C@@H](C)O [ILGTILGLLKAL]
[10]
  MIC: 16 µM (≈ 19.6 µg/mL)
[9]
  MIC: 16 µM (≈ 19.6 µg/mL)
[1]
  MIC: 64 µM (≈ 78.3 µg/mL)
[5]
  MIC: 8 µM (≈ 9.79 µg/mL)

## CC[C@H](C)[C@H](N)C(=O)N[C@@H](CC(C)C)C(=O)N1CCC[C@H]1C(=O)N[C@@H](Cc1cnc[nH]1)C(=O)N[C@@H](CCCCN)C(=O)N[C@@H](Cc1cnc[nH]1)C(=O)N1CCC[C@H]1C(=O)N[C@@H](Cc1cnc[nH]1)C(=O)N[C@@H](Cc1cnc[nH]1)C(=O)N1CCC[C@H]1C(=O)N[C@@H](Cc1cnc[nH]1)C(=O)N[C@@H](CCCN=C(N)N)C(=O)N[C@@H](CCCN=C(N)N)C(N)=O [ILPHKHPHHPHRR]
[11]
  MIC: ≥ 100 µM

## CSCC[C@@H]1NC(=O)[C@H](CC(C)C)NC(=O)[C@H](C)NC(=O)[C@H](CCCN=C(N)N)NC(=O)[C@H](Cc2ccccc2)NC(=O)[C@H](CC(C)C)NC(=O)CNC(=O)[C@H](CCCCN)NC(=O)[C@@H](NC(=O)[C@H](CCCN=C(N)N)NC(=O)[C@@H]2CCCN2C(=O)[C@@H](NC(=O)[C@H](CO)NC(=O)[C@H](Cc2ccc(O)cc2)NC(=O)[C@H](C)NC(=O)[C@@H](N)CCCCN)[C@@H](C)O)CSSC[C@@H](C(=O)N[C@@H](Cc2c[nH]c3ccccc23)C(=O)N[C@@H](CC(C)C)C(N)=O)NC1=O [KAYSTPRCKGLFRALMCWL]
Pseudomonas aeruginosa
  MIC: 22.3 µM (≈ 49.9 µg/mL)
[1]
  MIC: 5.57 µM (≈ 12.5 µg/mL)
Bacillus cereus
  MIC: 22.3 µM (≈ 49.9 µg/mL)
[2]
  MIC: 5.57 µM (≈ 12.5 µg/mL)
Shigella dysenteriae
  MIC: 2.78 µM (≈ 6.24 µg/mL)
[3]
  MIC: 22.3 µM (≈ 49.9 µg/mL)

## CC[C@H](C)[C@H](NC(=O)[C@H](CCCN=C(N)N)NC(=O)[C@H](CCCN=C(N)N)NC(=O)[C@@H]1CCCN1C(=O)[C@@H]1CCCN1C(=O)[C@H](CCCN=C(N)N)NC(=O)[C@H](CCCN=C(N)N)NC(=O)[C@H](CCCN=C(N)N)NC(=O)[C@@H]1CCCN1C(=O)[C@H](CC(C)C)NC(=O)[C@H](CCCN=C(N)N)NC(=O)[C@@H]1CCCN1C(=O)[C@H](CCCCN)NC(=O)[C@H](CCCCN)NC(=O)[C@H](CC(=O)O)NC(=O)[C@@H](N)C(C)C)C(=O)N[C@@H](Cc1ccc(O)cc1)C(=O)N[C@@H](CC(N)=O)C(=O)N[C@@H](CCCN=C(N)N)C(N)=O [VDKKPRLPRRRPPRRIYNR]
Escherichia coli JW0013
  MIC: 0.687 µM (≈ 1.7 µg/mL)

## CC[C@H](C)[C@H](NC(=O)[C@H](CCCN=C(N)N)NC(=O)[C@H](CCCN=C(N)N)NC(=O)[C@@H]1CCCN1C(=O)[C@@H]1CCCN1C(=O)[C@H](CCCN=C(N)N)NC(=O)[C@H](CCCN=C(N)N)NC(=O)[C@H](CCCN=C(N)N)NC(=O)[C@@H]1CCCN1C(=O)[C@H](CCCCN)NC(=O)[C@H](Cc1ccc(O)cc1)NC(=O)[C@@H]1CCCN1C(=O)[C@H](CCCCN)NC(=O)[C@H](CCCCN)NC(=O)[C@H](CC(=O)O)NC(=O)[C@@H](N)C(C)C)C(=O)N[C@@H](Cc1ccc(O)cc1)C(=O)N[C@@H](CC(N)=O)C(=O)N[C@@H](CCCN=C(N)N)C(N)=O [VDKKPYKPRRRPPRRIYNR]
Escherichia coli JW0013
  MIC: 0.481 µM (≈ 1.2 µg/mL)

## CC[C@H](C)[C@H](NC(=O)[C@H](CCCN=C(N)N)NC(=O)[C@H](CCCN=C(N)N)NC(=O)[C@@H]1CCCN1C(=O)[C@@H]1CCCN1C(=O)[C@H](CCCN=C(N)N)NC(=O)[C@H](CCCN=C(N)N)NC(=O)[C@H](CCCN=C(N)N)NC(=O)[C@@H]1CCCN1C(=O)[C@H](CC(C)C)NC(=O)[C@H](Cc1ccc(O)cc1)NC(=O)[C@H](Cc1cnc[nH]1)NC(=O)[C@H](CCCN=C(N)N)NC(=O)[C@H](CCCCN)NC(=O)[C@H](CC(=O)O)NC(=O)[C@@H](N)C(C)C)C(=O)N[C@@H](Cc1ccc(O)cc1)C(=O)N[C@@H](CC(N)=O)C(=O)N[C@@H](CCCN=C(N)N)C(N)=O [VDKRHYLPRRRPPRRIYNR]
Escherichia coli JW0013
  MIC: 0.628 µM (≈ 1.6 µg/mL)

## CC[C@H](C)[C@H](NC(=O)[C@H](CCCN=C(N)N)NC(=O)[C@H](CCCN=C(N)N)NC(=O)[C@@H]1CCCN1C(=O)[C@@H]1CCCN1C(=O)[C@H](CCCN=C(N)N)NC(=O)[C@@H]1CCCN1C(=O)[C@H](CCCN=C(N)N)NC(=O)[C@@H]1CCCN1C(=O)[C@H](CCCCN)NC(=O)[C@H](CCCN=C(N)N)NC(=O)[C@@H]1CCCN1C(=O)[C@H](CCCN=C(N)N)NC(=O)[C@H](CCCCN)NC(=O)[C@H](CC(=O)O)NC(=O)[C@@H](N)C(C)C)C(=O)N[C@@H](Cc1ccc(O)cc1)C(=O)N[C@@H](CC(N)=O)C(=O)N[C@@H](CCCN=C(N)N)C(N)=O [VDKRPRKPRPRPPRRIYNR]
Escherichia coli JW0013
  MIC: 1.34 µM (≈ 3.3 µg/mL)

## CC[C@H](C)[C@H](NC(=O)[C@H](CCCN=C(N)N)NC(=O)[C@H](CCCN=C(N)N)NC(=O)[C@@H]1CCCN1C(=O)[C@@H]1CCCN1C(=O)[C@H](CCCN=C(N)N)NC(=O)[C@H](CCCCN)NC(=O)[C@H](CCCN=C(N)N)NC(=O)[C@@H]1CCCN1C(=O)[C@H](CCCCN)NC(=O)[C@H](Cc1ccc(O)cc1)NC(=O)[C@@H]1CCCN1C(=O)[C@H](CCCN=C(N)N)NC(=O)[C@H](CCCCN)NC(=O)[C@H](CC(=O)O)NC(=O)[C@@H](N)C(C)C)C(=O)N[C@@H](Cc1ccc(O)cc1)C(=O)N[C@@H](CC(N)=O)C(=O)N[C@@H](CCCN=C(N)N)C(N)=O [VDKRPYKPRKRPPRRIYNR]
Escherichia coli JW0013
  MIC: 1.24 µM (≈ 3.1 µg/mL)

## CC[C@H](C)[C@H](NC(=O)[C@H](CCCN=C(N)N)NC(=O)[C@H](CCCN=C(N)N)NC(=O)[C@@H]1CCCN1C(=O)[C@@H]1CCCN1C(=O)[C@H](CCCN=C(N)N)NC(=O)[C@@H]1CCCN1C(=O)[C@H](CCCN=C(N)N)NC(=O)[C@@H]1CCCN1C(=O)[C@H](CC(C)C)NC(=O)[C@H](Cc1ccc(O)cc1)NC(=O)[C@@H]1CCCN1C(=O)[C@@H]1CCCN1C(=O)[C@H](CCCCN)NC(=O)[C@H](Cc1ccccc1)NC(=O)[C@@H](N)C(C)C)C(=O)N[C@@H](Cc1ccc(O)cc1)C(=O)N[C@@H](CC(N)=O)C(=O)N[C@@H](CCCN=C(N)N)C(N)=O [VFKPPYLPRPRPPRRIYNR]
Escherichia coli JW0013
  MIC: 1.98 µM (≈ 4.8 µg/mL)
